The source of these data is PubChem BioAssay (NCI).

The structures appear in SMILES notation. “And” between values parts separate entries of the source, which are not always exact repeats. Identical values can stand only once.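 48-hour exposure; five concentrations; linearly interpolated endpoints. The concentration for 50% growth inhibition is given as GI50. TGI is the concentration that stops growth completely.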

Some test systems named below: DMS 273 small cell lung; DLD-1 colon; RPMI-8226 leukemia; HOP-92 NSCLC; MDA-MB-231 breast; HCT-15 colon; HL-60(TB) leukemia; OVCAR-4 ovarian; UACC-257 melanoma; SF-268 CNS.
Assay in all cases: DTP human tumour cell line panel, 48 h

On to `CN(C)CCN1C(=O)c2cccc3cc(N)cc(c23)C1=O`, for which the concentration for total growth inhibition (TGI) in the test on DMS 273 small cell lung is 8.22 µM; with DLD-1 colon, 27.7 µM; with RPMI-8226 leukemia, 25.2 µM and 19.9 µM; with HOP-92 NSCLC, 15.4 µM and 13.1 µM; with MDA-MB-231 breast, 34.8 µM and 9.64 µM; in the test on HCT-15 colon, > 50 µM and 16 µM. Further, the total growth inhibition concentration (TGI) in the test with HL-60(TB) leukemia is 59.2 µM and 16.2 µM; in the test on OVCAR-4 ovarian it was 33.7 µM and 18.3 µM; in the test with UACC-257 melanoma, 9.51 µM and 12.8 µM; in the test with SF-268 CNS, 25.6 µM and 28.9 µM. Moreover, the GI50 with RPMI-8226 leukemia was 3.37 µM; in the test with HOP-92 NSCLC, 2.28 µM; in the test on MDA-MB-231 breast it was 8.01 µM; with HL-60(TB) leukemia, 5.29 µM; in the test on UACC-257 melanoma, 2.55 µM; in the test with SF-268 CNS it was 3.83 µM.
On to `CN(c1ccccc1)c1nc(=[N+](C)C)ss1`, for which the concentration for total growth inhibition (TGI) in the test with DMS 273 small cell lung, with DLD-1 colon, in the test on HOP-92 NSCLC, with HCT-15 colon, in the test on HL-60(TB) leukemia and in the test with OVCAR-4 ovarian was > 100 µM in each case. The concentration for total growth inhibition (TGI) with UACC-257 melanoma and in the test with SF-268 CNS was > 100 µM in each case.
For the compound `CC(C)OC(=O)Nc1c([N+](=O)[O-])cc(C(F)(F)F)cc1[N+](=O)[O-]`, the TGI in the test on DMS 273 small cell lung was > 100 µM; in the test with DLD-1 colon, > 100 µM; with RPMI-8226 leukemia, > 100 µM; in the test with HOP-92 NSCLC, > 91.8 µM; in the test with MDA-MB-231 breast, > 100 µM; with HCT-15 colon it was > 100 µM. In addition, the concentration for total growth inhibition (TGI) in the test on HL-60(TB) leukemia, in the test on OVCAR-4 ovarian, in the test on UACC-257 melanoma and in the test with SF-268 CNS was > 100 µM throughout.
In the case of `O=[N+]([O-])c1ccc(Cl)c(C2CC(c3cccc4ccccc34)=Nc3ccccc3S2=O)c1` (stereo unspecified), the TGI in the test with DMS 273 small cell lung was > 100 µM; with DLD-1 colon it was 26.1 µM; in the test with RPMI-8226 leukemia, 7.7 µM; in the test with HOP-92 NSCLC, 22.8 µM; in the test on HCT-15 colon, > 100 µM; in the test on HL-60(TB) leukemia it was 34.1 µM. Moreover, the figures for the concentration for total growth inhibition (TGI) with OVCAR-4 ovarian, with UACC-257 melanoma and with SF-268 CNS were > 84.2 µM, > 86.4 µM and > 100 µM, respectively.
As for `CC[O-].CC[O-].[O-]c1ccccc1C=NC12CC3CC(CC(C3)C1)C2.[O-]c1ccccc1C=NC12CC3CC(CC(C3)C1)C2.[Ti+4]`, the GI50 in the test on DMS 273 small cell lung is > 100 µM; in the test on DLD-1 colon, 11.1 µM; in the test on RPMI-8226 leukemia it was 57.6 µM; in the test on HOP-92 NSCLC, 34.4 µM; in the test with HL-60(TB) leukemia, 52.4 µM; in the test with OVCAR-4 ovarian it was > 100 µM. In addition, the GI50 was > 100 µM in the test on UACC-257 melanoma and 92.5 µM in the test on SF-268 CNS. Also, the TGI with DMS 273 small cell lung, in the test on DLD-1 colon, in the test on RPMI-8226 leukemia, in the test on HOP-92 NSCLC, with HL-60(TB) leukemia and in the test with OVCAR-4 ovarian was > 100 µM throughout. The TGI in the test on UACC-257 melanoma and with SF-268 CNS was > 100 µM throughout.
Take `COC1C(OC(=O)/C=C/C=C/C=C/C=C/C(=O)O)CCC2(CO2)C1C1(C)OC1CC=C(C)C` (stereo unspecified): the total growth inhibition concentration (TGI) in the test on DMS 273 small cell lung was > 100 µM; with DLD-1 colon, > 100 µM; with RPMI-8226 leukemia it was 78.6 µM; in the test with HOP-92 NSCLC it was > 76.1 µM; in the test with MDA-MB-231 breast it was 80.5 µM; in the test with HCT-15 colon, > 93.9 µM. Moreover, the TGI in the test on HL-60(TB) leukemia was 70.6 µM; with OVCAR-4 ovarian, > 87 µM; in the test on UACC-257 melanoma, > 84.2 µM; with SF-268 CNS, > 100 µM. Moreover, the GI50 with RPMI-8226 leukemia was 0.165 µM; with HOP-92 NSCLC it was 0.438 µM; in the test with MDA-MB-231 breast, 0.525 µM; in the test on HCT-15 colon, 0.296 µM; in the test on HL-60(TB) leukemia, 0.187 µM; in the test on OVCAR-4 ovarian, 0.184 µM. Moreover, the GI50 was 0.489 µM with UACC-257 melanoma and 0.388 µM with SF-268 CNS.
For `O=c1cc(-c2cccc(Cl)c2)[nH]c2cc3c(cc12)OCO3`, the concentration for total growth inhibition (TGI) in the test with DMS 273 small cell lung was 75 µM; in the test on DLD-1 colon, 8.57 µM; in the test on RPMI-8226 leukemia it was > 100 µM; in the test on HOP-92 NSCLC, 21.8 µM; in the test with MDA-MB-231 breast, 11.5 µM; with HCT-15 colon, 2.81 µM. Moreover, the TGI with HL-60(TB) leukemia is 7.5 µM and 1.39 µM; in the test on OVCAR-4 ovarian, > 100 µM; in the test with UACC-257 melanoma, > 100 µM. In addition, the values for the 50% growth inhibitory concentration (GI50) in the test with HL-60(TB) leukemia and with OVCAR-4 ovarian were 0.263 µM and 43 µM, respectively.
Consider `CN(N=O)C(=O)NC(CCCCNC(=O)OCc1ccccc1)C(=O)OCc1ccccc1` (stereo unspecified), for which the TGI in the test with DMS 273 small cell lung was > 100 µM; in the test with DLD-1 colon, > 100 µM; with RPMI-8226 leukemia, 95.4 µM; in the test on HOP-92 NSCLC, 54.2 µM; in the test on HCT-15 colon, > 100 µM; in the test on HL-60(TB) leukemia, 48.7 µM. The concentration for total growth inhibition (TGI) with OVCAR-4 ovarian is > 100 µM; with UACC-257 melanoma, 33.5 µM.
Take `CCN(CC)CC(C(=O)Nc1c(C)cccc1C)/C(C)=N\NC(=S)NN` (stereo unspecified): the TGI with DMS 273 small cell lung, with DLD-1 colon, in the test with RPMI-8226 leukemia, in the test with HOP-92 NSCLC, with HL-60(TB) leukemia and in the test with UACC-257 melanoma was > 100 µM in each case. Further, the concentration for total growth inhibition (TGI) in the test with SF-268 CNS is > 100 µM.
Regarding `[O-]c1ccccc1C=NCCN=Cc1ccccc1[O-].[O]=[U+2]=[O]`, the GI50 in the test with DMS 273 small cell lung was 32.5 µM; with DLD-1 colon, 27 µM; in the test on RPMI-8226 leukemia it was 22.4 µM; with HOP-92 NSCLC, 22.6 µM; in the test on HCT-15 colon it was 36.8 µM; in the test with HL-60(TB) leukemia, > 48.4 µM. The GI50 in the test on OVCAR-4 ovarian is 19 µM; in the test on UACC-257 melanoma, 34.5 µM; in the test with SF-268 CNS, 25.1 µM. Moreover, the TGI is > 100 µM in the test with DMS 273 small cell lung; > 100 µM in the test on DLD-1 colon; > 31.6 µM with RPMI-8226 leukemia; 48.3 µM in the test on HOP-92 NSCLC; > 100 µM with HCT-15 colon; > 84.5 µM in the test on HL-60(TB) leukemia. Further, the concentration for total growth inhibition (TGI) in the test with OVCAR-4 ovarian was 64.1 µM; with UACC-257 melanoma it was > 78.1 µM; in the test on SF-268 CNS, 66.5 µM.
Turning to `CC1=NC2(C(=O)O)C3(C(=O)O)N=C(C)OC3(C(F)(F)F)C2(C(F)(F)F)O1` (stereo unspecified), the TGI in the test with DMS 273 small cell lung, with DLD-1 colon, in the test on HOP-92 NSCLC, in the test on HL-60(TB) leukemia, with OVCAR-4 ovarian and in the test on UACC-257 melanoma was > 100 µM in each case. In the test on SF-268 CNS, the TGI is > 100 µM.
`COc1ccc2c(c1[N+](=O)[O-])CC[C@@H]1[C@@H]2CC[C@]2(C)C(=O)CC[C@@H]12`: the TGI is > 25 µM in the test with DMS 273 small cell lung; > 25 µM in the test with DLD-1 colon; > 1000 µM in the test on RPMI-8226 leukemia; > 905 µM in the test with MDA-MB-231 breast; > 1000 µM in the test on HCT-15 colon; > 1000 µM in the test on UACC-257 melanoma. Also, the concentration for total growth inhibition (TGI) in the test on SF-268 CNS was > 1000 µM. In addition, the GI50 with RPMI-8226 leukemia was > 1000 µM; in the test on HOP-92 NSCLC, 289 µM; in the test with MDA-MB-231 breast, 400 µM; in the test with HCT-15 colon it was > 1000 µM; in the test with HL-60(TB) leukemia it was > 1000 µM; in the test with OVCAR-4 ovarian it was 228 µM. Further, the GI50 in the test with UACC-257 melanoma was > 931 µM; in the test with SF-268 CNS, 342 µM.
In the case of `O=S1(=O)[C@H](c2ccccc2)c2c(-c3ccccc3)sc(-c3ccccc3)c2[C@@H]1c1ccccc1`, the TGI in the test with DMS 273 small cell lung, with DLD-1 colon, in the test on RPMI-8226 leukemia, in the test with HOP-92 NSCLC, with HCT-15 colon and with HL-60(TB) leukemia was > 100 µM throughout. Besides, the concentration for total growth inhibition (TGI) in the test on OVCAR-4 ovarian, in the test with UACC-257 melanoma and with SF-268 CNS was > 100 µM each time.
In the case of `O=C(O)c1ccccc1NS(=O)(=O)c1ccc(Cl)cc1`, the TGI with DMS 273 small cell lung is > 100 µM; with DLD-1 colon it was > 100 µM; in the test with RPMI-8226 leukemia it was > 100 µM; with HOP-92 NSCLC, 81.5 µM; with HCT-15 colon, > 100 µM; in the test with OVCAR-4 ovarian it was > 100 µM. The concentration for total growth inhibition (TGI) with UACC-257 melanoma and in the test on SF-268 CNS was > 100 µM throughout.
`CC1COS(=O)N1c1ccccc1` (stereo unspecified): the TGI in the test with DMS 273 small cell lung, in the test with DLD-1 colon, with RPMI-8226 leukemia, with HOP-92 NSCLC, in the test on HCT-15 colon and in the test on HL-60(TB) leukemia was > 100 µM throughout. The TGI in the test on OVCAR-4 ovarian, with UACC-257 melanoma and in the test on SF-268 CNS was > 100 µM each time.
Take `O=C1CN=C(c2ccccc2)c2ccncc2N1`: the TGI was > 100 µM in the test with DMS 273 small cell lung; > 100 µM with DLD-1 colon; > 100 µM in the test with HOP-92 NSCLC; > 100 µM with HL-60(TB) leukemia; > 100 µM with OVCAR-4 ovarian; 72.5 µM in the test on UACC-257 melanoma. The TGI with SF-268 CNS is > 100 µM.
